This is an account of results in article PMC13489962, “Small-molecule modulation of β-arrestins” (Nature, 2026).

The assay has as its system βarr1/2. As to the kind of experiment: DSF with IP6 and/or Cmpd-5. The class given is binding. The protocol: DSF assay was performed to identify β-arrestin-binding small molecules from the drug-like compound library (DDLC) described above. The screen was conducted using the StepOnePlus Real-Time PCR System (Applied Biosystems) with the fluorescent reporter probe SYPRO Orange (Thermo Fisher Scientific) in a 96-well format. Proteins were buffered in 20 mM HEPES (pH 7.5) with 100 mM NaCl. Small molecules (100 μM) were screened with either βARR1 or βARR2 (5 μM). DMSO was used as a vehicle control, and V2Rpp (50 μM) served as a positive control.
For DSF experiments involving the three positive control ligands (V2Rpp, IP6 and heparin, each at 50 μM) binding to β-arrestins, HEPES buffer was used as the vehicle control. Excitation and emission filters for SYPRO Orange were set to 475 nm and 580 nm, respectively. The temperature was increased by 0.5 °C every 30 s, from 25 °C to 99 °C, with fluorescence readings taken at each interval. Raw DSF data were analysed using Applied Biosystems Protein Thermal Shift Software. Fluorescence intensities were plotted as a function of temperature, and the midpoint of transition, or melting temperature (Tm), was calculated by plotting the first derivative of fluorescence emission as a function of temperature (dF/dT). […]

Consider `C=C1C(=O)[C@]23[C@H](O)[C@H]1CC[C@H]2[C@@]12CO[C@]3(O)[C@@H](O)[C@@H]1C(C)(C)CC[C@@H]2O` [Cmpd-5, (1S,4aR,5S,6S,6aR,9S,11aS,11bS,14R)-1,5,6,14-tetrahydroxy−4,4-dimethyl-8-methylenedecahydro-1H-6,11b-(epoxymethano)-6a,9-methanocyclohepta[a]naphthalen-7(8H)-one], for which the “effect on IP6-stabilized β-arrestin state by DSF” value is recorded as “shifts βarr1/2 away from the IP6-stabilized active state”.
